According to publication PMC7311426, “An amphipathic peptide with antibiotic activity against multidrug-resistant Gram-negative bacteria” (Nature Communications, 2020):

System: A. baumannii clinical isolates
Assay: microbe, parasite or virus in culture
Procedure: The in vitro activity of AA139 and comparator antimicrobials was determined in two panels of clinical isolates of E. coli, K. pneumoniae, P. aeruginosa, and A. baumannii (Supplementary Table 3), and MIC90 presented. The US panel consisted of 331 clinical isolates from 2010 to 2012. It was tested by BMD in accordance with the CLSI guidelines (M07-A9, 2012)[39]. […] AA139 was diluted in 0.01% acetic acid/0.1% bovine serum albumin. Sterile polypropylene culture cluster round-bottom 96-well plates (Costar # 3879) were used for testing. The worldwide panel consisted of 445 clinical isolates from 2011 to 2013, geographically divided into Asia, Europe, North America, and Rest of World (Middle East, Latin America, Africa, and South Pacific) with each region representing ~25% of the isolates. It was tested by broth microdilution in accordance with the CLSI guidelines (M07-A9, 2012)[39]. […] The test media was CAMHB (Becton Dickinson). AA139 and polymyxin B were tested in media supplemented with 0.002% Tween 80 (Calbiochem). MIC90 values were calculated for all or subsets of the isolates. MIC correlation between AA139 and colistin was analyzed with data from the US panel.

[1] = US isolates 2010-2012, isolate CID 1919446, Rep 1
[2] = US isolates 2010-2012, isolate CID 1919446, Rep 2
[3] = US isolates 2010-2012, isolate CID 1919519, Rep 1
[4] = US isolates 2010-2012, isolate CID 1919519, Rep 2
[5] = US isolates 2010-2012, isolate CID 1919714, Rep 1
[6] = US isolates 2010-2012, isolate CID 1919714, Rep 2
[7] = US isolates 2010-2012, isolate CID 1919942, Rep 1
[8] = US isolates 2010-2012, isolate CID 1919942, Rep 2
[9] = US isolates 2010-2012, isolate CID 1930670, Rep 1
[10] = US isolates 2010-2012, isolate CID 1930670, Rep 2
[11] = US isolates 2010-2012, isolate CID 1930676, Rep 1
[12] = US isolates 2010-2012, isolate CID 1930676, Rep 2
[13] = US isolates 2010-2012, isolate CID 2727597, Rep 1
[14] = US isolates 2010-2012, isolate CID 2727597, Rep 2
[15] = US isolates 2010-2012, isolate CID 2727598, Rep 1
[16] = US isolates 2010-2012, isolate CID 2727598, Rep 2
[17] = US isolates 2010-2012, isolate CID 2727898, Rep 1
[18] = US isolates 2010-2012, isolate CID 2727898, Rep 2
[19] = US isolates 2010-2012, isolate CID 2728115, Rep 1
[20] = US isolates 2010-2012, isolate CID 2728115, Rep 2
[21] = US isolates 2010-2012, isolate CID 2728119, Rep 1
[22] = US isolates 2010-2012, isolate CID 2728119, Rep 2
[23] = US isolates 2010-2012, isolate CID 2728650, Rep 1
[24] = US isolates 2010-2012, isolate CID 2728650, Rep 2
[25] = US isolates 2010-2012, isolate CID 2728663, Rep 1
[26] = US isolates 2010-2012, isolate CID 2728663, Rep 2
[27] = US isolates 2010-2012, isolate CID 2732481, Rep 1
[28] = US isolates 2010-2012, isolate CID 2732481, Rep 2
[29] = US isolates 2010-2012, isolate CID 2732486, Rep 1
[30] = US isolates 2010-2012, isolate CID 2732486, Rep 2
[31] = US isolates 2010-2012, isolate CID 2762740, Rep 1
[32] = US isolates 2010-2012, isolate CID 2762740, Rep 2
[33] = US isolates 2010-2012, isolate CID 2801947, Rep 1
[34] = US isolates 2010-2012, isolate CID 2801947, Rep 2
[35] = US isolates 2010-2012, isolate CID 2801949, Rep 1
[36] = US isolates 2010-2012, isolate CID 2801949, Rep 2
[37] = US isolates 2010-2012, isolate CID 2802027, Rep 1
[38] = US isolates 2010-2012, isolate CID 2802027, Rep 2
[39] = US isolates 2010-2012, isolate CID 2802028, Rep 1
[40] = US isolates 2010-2012, isolate CID 2802028, Rep 2
[41] = US isolates 2010-2012, isolate CID 2802029, Rep 1
[42] = US isolates 2010-2012, isolate CID 2802029, Rep 2
[43] = US isolates 2010-2012, isolate CID 2802031, Rep 1
[44] = US isolates 2010-2012, isolate CID 2802031, Rep 2
[45] = US isolates 2010-2012, isolate CID 2802109, Rep 2
[46] = US isolates 2010-2012, isolate CID 2802111, Rep 2
[47] = US isolates 2010-2012, isolate CID 2802187, Rep 1
[48] = US isolates 2010-2012, isolate CID 2802187, Rep 2

Measured: MIC

C[C@@H](O)[C@H]1C(=O)N2C(C(=O)O)=C(S[C@@H]3CN[C@H](C(=O)N(C)C)C3)[C@H](C)[C@H]12 [Mero]
2 µg/mL: [2] | [26] | [48]
1 µg/mL: [1] | [7] | [8] | [25] | [35] | [43] | [44] | [47]
0.5 µg/mL: [11] | [12] | [17] | [18]
16 µg/mL: [9] | [23] | [24]
0.25 µg/mL: [33] | [34] | [36]
> 16 µg/mL: [3] | [4] | [5] | [6] | [10] | [13] | [14] | [15] | [16] | [19] | [20] | [21] | [22] | [27] | [28] | [29] | [30] | [31] | [32] | [37] | [38] | [39] | [40] | [41] | [42] | [45] | [46]

CN(C)c1cc(NC(=O)CNC(C)(C)C)c(O)c2c1C[C@H]1C[C@H]3[C@H](N(C)C)C(O)=C(C(N)=O)C(=O)[C@@]3(O)C(O)=C1C2=O [Tig]
1 µg/mL: [2] | [10] | [15] | [16] | [23] | [24] | [26] | [28] | [29] | [30] | [37] | [43] | [44] | [45]
2 µg/mL: [1] | [3] | [4] | [5] | [6] | [13] | [14] | [19] | [20] | [21] | [22] | [25] | [27] | [41] | [42] | [46]
0.12 µg/mL: [17] | [18] | [34]
8 µg/mL: [32]
0.5 µg/mL: [8] | [9] | [31] | [35] | [38] | [39] | [40]
0.25 µg/mL: [7] | [11] | [12] | [33] | [36] | [47] | [48]
